From paper PMC7951137 (ACS chemical neuroscience, 2021)
Where two headings read alike, the source gives them in different places. Blank lines part the entries; values can stand above or below the molecule they belong to.

Assays:
[1] = biological target: T1, D189N hMC4R (Homo sapiens, UniProt P32245, D189N); assay: cAMP AlphaScreen antagonist assay; type: cell-based
[2] = biological target: T2, D189Q hMC4R (Homo sapiens, UniProt P32245, D189Q); assay: cAMP AlphaScreen antagonist assay; type: cell-based
[3] = biological target: T3, D189A hMC4R (Homo sapiens, UniProt P32245, D189A); assay: cAMP AlphaScreen antagonist assay; type: cell-based
[4] = biological target: T4, D189K hMC4R (Homo sapiens, UniProt P32245, D189K); assay: cAMP AlphaScreen antagonist assay; type: cell-based
[5] = biological target: T5, wildtype hMC4R (Homo sapiens, UniProt P32245); assay: cAMP AlphaScreen agonist / inverse agonist assay; type: cell-based; details: WT hMC4R, basal = signal at 10^−12 M
[6] = biological target: D189E hMC4R (Homo sapiens, UniProt P32245, D189E); assay: cAMP AlphaScreen agonist / inverse agonist assay; type: cell-based; details: for Inverse agonist percent decrease from basal activity: D189E hMC4R
[7] = biological target: T2, D189Q hMC4R; assay: cAMP AlphaScreen agonist / inverse agonist assay; type: cell-based; details: for Inverse agonist percent decrease from basal activity: D189Q hMC4R
[8] = biological target: T6, D189S hMC4R (Homo sapiens, UniProt P32245, D189S); assay: cAMP AlphaScreen agonist / inverse agonist assay; type: cell-based; details: D189S hMC4R
[9] = biological target: T6, D189S hMC4R; assay: cAMP AlphaScreen antagonist assay; type: cell-based; details: Schild analysis, agonist NDP-MSH
[10] = biological target: T1, D189N hMC4R; assay: cAMP AlphaScreen agonist / inverse agonist assay; type: cell-based; details: D189N hMC4R
[11] = biological target: T3, D189A hMC4R; assay: cAMP AlphaScreen agonist / inverse agonist assay; type: cell-based
[12] = biological target: T4, D189K hMC4R; assay: cAMP AlphaScreen agonist / inverse agonist assay; type: cell-based
[13] = biological target: T4, D189K hMC4R
[14] = biological target: T5, wildtype hMC4R; assay: cAMP AlphaScreen antagonist assay; type: cell-based; details: hMC4R
[15] = tested on: mMC4R; details: cited from earlier work
[16] = biological target: T7, human melanocortin-4 receptor (hMC4R), wild type, N-terminal FLAG-tagged (human, UniProt P32245 1-332); assay: cell-based or functional assay
[17] = biological target: T8, D189E mutant hMC4R, N-terminal FLAG-tagged (human, UniProt P32245 1-332, D189E); assay: cell-based or functional assay
[18] = biological target: T9, D189N mutant hMC4R, N-terminal FLAG-tagged (human, UniProt P32245 1-332, D189N); assay: cell-based or functional assay
[19] = biological target: T10, D189Q mutant hMC4R, N-terminal FLAG-tagged (human, UniProt P32245 1-332, D189Q); assay: cell-based or functional assay
[20] = biological target: T11, D189S mutant hMC4R, N-terminal FLAG-tagged (human, UniProt P32245 1-332, D189S); assay: cell-based or functional assay
[21] = biological target: T12, D189A mutant hMC4R, N-terminal FLAG-tagged (human, UniProt P32245 1-332, D189A); assay: cell-based or functional assay
[22] = biological target: T13, D189K mutant hMC4R, N-terminal FLAG-tagged (human, UniProt P32245 1-332, D189K); assay: cell-based or functional assay
[23] = biological target: T7, human melanocortin-4 receptor (hMC4R), …; assay: radioligand binding
[24] = biological target: T7, human melanocortin-4 receptor (hMC4R), …; assay: radioligand binding; remark: listed apart in the source
[25] = biological target: T8, D189E mutant hMC4R, N-terminal …; assay: radioligand binding
[26] = biological target: T9, D189N mutant hMC4R, N-terminal …; assay: radioligand binding
[27] = biological target: T10, D189Q mutant hMC4R, N-terminal …; assay: radioligand binding
[28] = biological target: T11, D189S mutant hMC4R, N-terminal …; assay: radioligand binding
[29] = biological target: T12, D189A mutant hMC4R, N-terminal …; assay: radioligand binding
[30] = biological target: T13, D189K mutant hMC4R, N-terminal …; assay: radioligand binding

T7 sequence (P32245 whole entry): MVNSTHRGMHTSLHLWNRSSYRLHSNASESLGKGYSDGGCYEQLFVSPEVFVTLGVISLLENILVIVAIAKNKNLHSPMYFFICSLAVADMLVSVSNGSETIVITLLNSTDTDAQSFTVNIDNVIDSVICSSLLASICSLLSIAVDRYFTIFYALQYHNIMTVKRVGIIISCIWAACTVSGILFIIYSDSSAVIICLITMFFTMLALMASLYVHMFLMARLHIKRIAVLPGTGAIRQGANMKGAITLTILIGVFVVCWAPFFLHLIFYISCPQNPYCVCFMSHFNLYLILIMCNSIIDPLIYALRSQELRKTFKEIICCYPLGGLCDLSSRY
T5 sequence (P32245 whole entry): as above
T6 sequence (P32245 whole entry D189S): as the sequence (P32245 whole entry) above, with D189S counted along it
T2 sequence (P32245 whole entry D189Q): as the sequence (P32245 whole entry) above, with D189Q counted along it
T4 sequence (P32245 whole entry D189K): as the sequence (P32245 whole entry) above, with D189K counted along it
Sequence of D189E hMC4R (P32245 whole entry D189E): as the sequence (P32245 whole entry) above, with D189E counted along it
T11 sequence (P32245 whole entry D189S): as the sequence (P32245 whole entry) above, with D189S counted along it
T9 sequence (P32245 whole entry D189N): as the sequence (P32245 whole entry) above, with D189N counted along it
T1 sequence (P32245 whole entry D189N): as the sequence (P32245 whole entry) above, with D189N counted along it
T10 sequence (P32245 whole entry D189Q): as the sequence (P32245 whole entry) above, with D189Q counted along it
T13 sequence (P32245 whole entry D189K): as the sequence (P32245 whole entry) above, with D189K counted along it
T8 sequence (P32245 whole entry D189E): as the sequence (P32245 whole entry) above, with D189E counted along it
T12 sequence (P32245 whole entry D189A): as the sequence (P32245 whole entry) above, with D189A counted along it
T3 sequence (P32245 whole entry D189A): as the sequence (P32245 whole entry) above, with D189A counted along it

Molecule: C[C@@H]1NC(=O)[C@H](CC(=O)O)NC(=O)[C@H](Cc2ccccc2)NC(=O)[C@H](Cc2ccccc2)NC(=O)[C@H](CCCNC(=N)N)NC(=O)[C@@H]2CCCN2C(=O)[C@H]2CCCN2C(=O)[C@H](Cc2ccccc2)NC1=O [MDE3–119-4c, c[Pro-Arg-Phe-Phe-Asp-Ala-Phe-DPro]]
- Kb [1]: 398 nM
- Kb [2]: 1580 nM
- Kb [3]: > 3160 nM
- Kb [4]: > 3160 nM
- Inverse agonist percent decrease from basal signal [5]: −35%
- EC50 [6]: 3000 nM
- Inverse agonist percent decrease from basal activity [6]: −40%
- EC50 [7]: 7000 nM
- Inverse agonist percent decrease from basal activity [7]: −45%
- Inverse agonist percent decrease from basal activity [8]: −15%

Molecule: agouti-related protein (AGRP86–132) [hAGRP(86–132), reference compound]
- Antagonist pA2 [9]: 8.2±0.2
- Inverse agonist percent decrease from basal signal [5]: 2.4±0.5 (−35%)
- Inverse agonist percent decrease from basal signal ([5]; listed as AGRP): 35%
- Inverse agonist percent decrease from basal activity [6]: 4.4±0.1 (−35%)
- Inverse agonist percent decrease from basal activity [10]: 30±10 (−10%)
- Inverse agonist percent decrease from basal activity [7]: 17±5 (−35%)
- Inverse agonist percent decrease from basal activity [8]: 20±10 (−20%)
- Inverse agonist activity [11]: no apparent inverse agonist activity
- Inverse agonist activity [12]: no apparent inverse agonist activity
- Decreased I125-AGRP binding affinity versus wildtype [13]: 10 fold

Second part, led by results:

- Decrease in antagonist potency relative to MDE3–119-8c [14]: 80 fold
Molecule: c[Pro-Arg-Phe-Phe-Phe-Ala-Phe-DPro] [MDE3–119-14c]
- Previously decreased antagonist potency (comparator not restated) [15]: 50–100 fold

- pA2, antagonism of NDP-MSH (Schild analysis), cAMP AlphaScreen, HEK293 cells [16]: 8.8
- pA2, antagonism of NDP-MSH (Schild analysis), cAMP AlphaScreen, HEK293 cells [17]: 8.8
- pA2, antagonism of NDP-MSH (Schild analysis), cAMP AlphaScreen, HEK293 cells [18]: 8.4
- pA2, antagonism of NDP-MSH (Schild analysis), cAMP AlphaScreen, HEK293 cells [19]: 8.1
- pA2, antagonism of NDP-MSH (Schild analysis), cAMP AlphaScreen, HEK293 cells [20]: 8.2
- pA2, antagonism of NDP-MSH (Schild analysis), cAMP AlphaScreen, HEK293 cells [21]: 6.9
- pA2, antagonism of NDP-MSH (Schild analysis), cAMP AlphaScreen, HEK293 cells [22]: 7.2
- IC50 [23]: 12 nM
- IC50 [24]: 12 nM
- IC50 [25]: 6 nM
- IC50 [26]: 10.5 nM
- IC50 [27]: 10 nM
- IC50 [28]: 12.5 nM
- IC50 [29]: > 1000 nM
- IC50 [30]: 150 nM
B1: human agouti-related protein hAGRP(86–132) (domain or fragment, UniProt O00253 86-132, looked up)
chain: RCVRLHESCLGQQVPCCDPCATCYCRFFNAFCYCRKLGTAMNPCSRT
